Data: PMC3161154 (Journal of the American Chemical Society, 2011)

Key:
[1] = system: LNCap; assay: cytotoxicity, LNCap; format: cell-based; conditions: read-out: LNCap (nM), cytotoxicity
[2] = system: MDA-468; assay: cytotoxicity, MDA-468; format: cell-based; conditions: read-out: MDA-468 (nM), cytotoxicity
[3] = biological target: mTOR (Homo sapiens, UniProt P42345); assay: mTor kinase inhibition; format: biochemical; conditions: read-out: mTOR (nM), mTor kinase inhibition
[4] = biological target: phosphatidylinositol 3-kinase; conditions: read-out: IC50 phosphatidylinositol 3-kinase; cited from earlier work
[5] = biological target: lymphocyte kinase; conditions: read-out: IC50 lymphocyte kinase; cited from earlier work

Row | Compound | IC50 [3] [nM] | IC50 [1] [nM] | IC50 [2] [nM] | IC50 [4] [µM] | IC50 [5] [µM]
1 | COC=CC(=O)c1cc2cnc3c(=N)cc(NC(=O)CC(C)C)c([nH]1)c23 [Compound 6, neolymphostin D] | 1.8 | 230 | 700 |  | 
2 | CO/C=C/C(=O)c1cc2cnc3c(=N)cc(NC(C)=O)c([nH]1)c23 [Compound 1, lymphostin] | 1.7 | 38 | 14 | 0.001 | 0.05
3 | CC[C@H](C)C(=O)Nc1cc(=N)c2ncc3cc(C(=O)C=COC)[nH]c1c32 [Compound 5, neolymphostin C] | 1.8 | 230 | 700 |  | 

These reach a lower IC50 [3]. Values come first.

Row | IC50 [3] [nM] | Compound | IC50 [1] [nM] | IC50 [2] [nM] | IC50 [4] [µM] | IC50 [5] [µM]
4 | 1.5 | CCC(=O)Nc1cc(=N)c2ncc3cc(C(=O)C=COC)[nH]c1c32 [Compound 4, neolymphostin B] | 48 | 85 |  | 
5 | 0.8 | neolymphostin A [Compound 3] | 22 | 58 |  | 
